According to patent US12157730B2, “Heteroaryl derivative, method for producing same, and pharmaceutical composition comprising same as effective component” (VORONOI INC., priority 2019, dated 2024):

Biological target: T1, Ba/F3 cell EGFR Exon20 ins NPH (Homo sapiens, UniProt P00533, INS773NPH)
T1 construct: expressed in transfected cells; host or cells: Ba/F3
Experiment: Ba/F3 cell proliferation suppression, EGFR Exon20 ins NPH
Format: cell-based
Settings: GI50 class; Ba/F3 cell line with NPH inserted at Exon20 of EGFR; 72 hours
Outline: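 Cells (3000–5000/well) plated 24 h before compound, 12-point 3-fold dilutions at 0.3 nM to 50 um final; Ba/F3 lines grown with 5 ng/ml IL-3. Viability by CellTiter-Glo luminescence after 72 h, growth ratio vs control, GI50 from curves; triplicate.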

Row | SMILES | Ba/F3 (NPH) Activity
1 | C=CC(=O)Nc1cc(Nc2cc(N3OCC[C@@H]3c3ccc4ccccc4c3)ncn2)c(OC)cc1N1CCC(N2CCN(C3CCC3)CC2)CC1 [Example 190, N-(2-(4-(4-cyclobutylpiperazine-1-yl)piperidine-1-yl)-4-methoxy-5-((6-((R)-3-(naphthalene-2-yl)isoxazolidine-2-yl)pyrimidine-4-yl)amino)phenyl)acrylamide] | B (50 nM ≤ GI50 < 500 nM)
2 | C=CC(=O)Nc1cc(Nc2cc(N3OCC[C@@H]3c3cccc(C)c3F)ncn2)c(OC)cc1N1CCC(N2C[C@@H](C)N(C3CC3)C[C@H]2C)CC1 [Example 124, N-(2-(4-((2R,5R)-4-cyclopropyl-2,5-dimethylpiperazine-1-yl)piperidine-1-yl)-5-((6-((R)-3-(2-fluoro-3-methylphenyl)isoxazolidine-2-yl)pyrimidine-4-yl)amino)-4-methoxyphenyl) acrylamide] | A (GI50 < 50 nM)
3 | C=CC(=O)Nc1cc(Nc2cc(N3OCC[C@@H]3c3cccc(Cl)c3Cl)ncn2)c(OC)cc1N(C)CCN(C)C [compound 516, N-(5-((6-((R)-3-(2,3-dichlorophenyl)isoxazolidine-2-yl)pyrimidine-4-yl)amino)-2-((2-(dimethylamino)ethyl)(methyl)amino)-4-methoxyphenyl) acrylamide] | A (GI50 < 50 nM)
4 | C=CC(=O)Nc1cc(Nc2cc(N3OCC[C@@H]3c3ccc(Cl)cc3)ncn2)c(OC)cc1N1CCC(N2C[C@@H]3C[C@H]2CO3)CC1 [compound 866, N-(2-(4-((1S,4S)-2-oxa-5-azabicyclo [2.2.1]heptane-5-yl)piperidine-1-yl)-5-((6-((R)-3-(4-chlorophenyl)isoxazolidine-2-yl)pyrimidine-4-yl)amino)-4-methoxyphenyl) acrylamide] | A (GI50 < 50 nM)
5 | C=CC(=O)Nc1cc(Nc2cc(N3OCC[C@@H]3c3cccc(C)c3F)ncn2)c(OC)cc1N1CCN(C)CC1 [compound 845, N-(5-((6-((R)-3-(2-fluoro-3-methylphenyl)isoxazolidine-2-yl)pyrimidine-4-yl)amino)-4-methoxy-2-(4-methylpiperazine-1-yl)phenyl)acrylamide] | A (GI50 < 50 nM)
6 | C=CC(=O)Nc1cc(Nc2cc(N3OCC[C@@H]3c3ccc(Cl)c(F)c3)ncn2)c(OC)cc1N1CCC(N2C[C@@H]3C[C@H]2CN3CC)CC1 [compound 858, N-(5-((6-((R)-3-(4-chloro-3-fluorophenyl)isoxazolidine-2-yl)pyrimidine-4-yl)amino)-2-(4-((1S,4S)-5-ethyl-2,5-diazabicyclo [2.2.1]heptane-2-yl)piperidine-1-yl)-4-methoxyphenyl) acrylamide] | A (GI50 < 50 nM)
7 | C=CC(=O)Nc1cc(Nc2cc(N3OCC[C@@H]3c3ccc(Cl)c(Cl)c3)ncn2)c(OC)cc1N1CCN(C(C)=O)CC1 [compound 675, N-(2-(4-acetylpiperazine-1-yl)-5-((6-((R)-3-(3,4-dichlorophenyl)isoxazolidine-2-yl)pyrimidine-4-yl)amino)-4-methoxyphenyl) acrylamide] | A (GI50 < 50 nM)
8 | C=CC(=O)Nc1cc(Nc2cc(N3OCC[C@@H]3Cc3cccc(Cl)c3C)ncn2)c(OC)cc1N1CCC(N2CCN(C3CC3)[C@@H](C)C2)CC1 [compound 1028, N-(5-((6-((S)-3-(3-chloro-2-methylbenzyl)isoxazolidine-2-yl)pyrimidine-4-yl)amino)-2-(4-((S)-4-cyclopropyl-3-methylpiperazine-1-yl)piperidine-1-yl)-4-methoxyphenyl) acrylamide] | A (GI50 < 50 nM)
9 | C=CC(=O)Nc1cc(Nc2cc(N3OCC[C@@H]3c3cc(F)ccc3F)ncn2)c(OC)cc1N1C[C@H]2CCN(C)[C@H]2C1 [compound 892, N-(5-((6-((R)-3-(2,5-difluorophenyl)isoxazolidine-2-yl)pyrimidine-4-yl)amino)-4-methoxy-2-((3aR,6aR)-1-methylhexahydropyrrolo [3,4-b]pyrrole-5(1H)-yl)phenyl) acrylamide] | A (GI50 < 50 nM)
10 | C=CC(=O)Nc1cc(Nc2cc(N3OCC[C@@H]3c3cccc(Cl)c3F)ncn2)c(OC)cc1N1CCN(C2COC2)CC1 [compound 745, N-(5-((6-((R)-3-(3-chloro-2-fluorophenyl)isoxazolidine-2-yl)pyrimidine-4-yl)amino)-4-methoxy-2-(4-(oxetane-3-yl)piperazine-1-yl)phenyl) acrylamide] | A (GI50 < 50 nM)
11 | C=CC(=O)Nc1cc(Nc2cc(N3OCC[C@@H]3c3ccc(Cl)c(Cl)c3F)ncn2)c(OC)cc1N1CCC(N2CCN(C(C)=O)CC2)CC1 [compound 774, N-(2-(4-(4-acetylpiperazine-1-yl)piperidine-1-yl)-5-((6-((R)-3-(3,4-dichloro-2-fluorophenyl)isoxazolidine-2-yl)pyrimidine-4-yl)amino)-4-methoxyphenyl) acrylamide] | B (50 nM ≤ GI50 < 500 nM)
12 | C=CC(=O)Nc1cc(Nc2cc(N3OCC[C@@H]3c3cccc(OC)c3)ncn2)c(OC)cc1N1CCC(N2CC[C@@H](N(C)C)C2)CC1 [compound 728, N-(2-(4-((R)-3-(dimethylamino)pyrolidine-1-yl)piperidine-1-yl)-4-methoxy-5-((6-((R)-3-(3-methoxyphenyl)isoxazolidine-2-yl)pyrimidine-4-yl)amino)phenyl)acrylamide] | A (GI50 < 50 nM)
13 | C=CC(=O)Nc1cc(Nc2cc(N3OCC[C@@H]3c3cccc(C#N)c3)ncn2)c(OC)cc1N1C[C@H]2CCN(C)[C@H]2C1 [compound 331, N-(5-((6-((R)-3-(3-cyanophenyl)isoxazolidine-2-yl)pyrimidine-4-yl)amino)-4-methoxy-2-((3aR, 6aR)-1-methylhexahydropyrrolo [3,4-b]pyrrole-5(1H)-yl)phenyl)acrylamide] | A (GI50 < 50 nM)
14 | C=CC(=O)Nc1cc(Nc2cc(N3OCC[C@@H]3c3ccc(F)c(Cl)c3)ncn2)c(OC)cc1N(C)CCOC [compound 904, N-(5-((6-((R)-3-(3-chloro-4-fluorophenyl)isoxazolidine-2-yl)pyrimidine-4-yl)amino)-4-methoxy-2-((2-methoxyethyl)(methyl)amino)phenyl) acrylamide] | A (GI50 < 50 nM)
15 | C=CC(=O)Nc1cc(Nc2cc(N3OCC[C@@H]3c3ccc(Cl)c(F)c3)ncn2)c(OC)cc1N1CCN(C2CC2)CC1 [compound 364, N-(5-((6-((R)-3-(4-chloro-3-fluorophenyl)isoxazolidine-2-yl)pyrimidine-4-yl)amino)-2-(4-cyclopropylpiperazine-1-yl)-4-methoxyphenyl) acrylamide] | A (GI50 < 50 nM)
16 | C=CC(=O)Nc1cc(Nc2cc(N3OCC[C@@H]3c3ccc(Cl)cc3F)ncn2)c(OC)cc1N1CCC(N(C(=O)C=C)C2CCN(C(C)C)CC2)CC1 [compound 402, N-(1-(2-acrylamido-4-((6-((R)-3-(4-chloro-2-fluorophenyl)isoxazolidine-2-yl)pyrimidine-4-yl)amino)-5-methoxyphenyl)piperidine-4-yl)-N-(1-isopropylpiperidine-4-yl)acrylamide] | A (GI50 < 50 nM)
17 | C=CC(=O)Nc1cc(Nc2cc(N3OCC[C@@H]3c3ccc(Cl)cc3)ncn2)c(OC)cc1N1CCC(N2CCN(C3CCC3)CC2)CC1 [Example 75, N-(5-((6-((R)-3-(4-chlorophenyl)isoxazolidine-2-yl)pyrimidine-4-yl)amino)-2-(4-(4-cyclobutylpiperazine-1-yl)piperidine-1-yl)-4-methoxyphenyl) acrylamide] | A (GI50 < 50 nM)
18 | C=CC(=O)Nc1cc(Nc2cc(N3OCC[C@@H]3c3cccc(Cl)c3)ncn2)c(OC)cc1N1CC[C@H](N(C)C)C1 [compound 468, N-(5-((6-((R)-3-(3-chlorophenyl)isoxazolidine-2-yl)pyrimidine-4-yl)amino)-2-((S)-3-(dimethylamino)pyrolidine-1-yl)-4-methoxyphenyl) acrylamide] | A (GI50 < 50 nM)
19 | C=CC(=O)Nc1cc(Nc2cc(N3OCC[C@@H]3c3cccc(Cl)c3Cl)ncn2)c(OC)cc1N1CCN(C(C)=O)CC1 [compound 519, N-(2-(4-acetylpiperazine-1-yl)-5-((6-((R)-3-(2,3-dichlorophenyl)isoxazolidine-2-yl)pyrimidine-4-yl)amino)-4-methoxyphenyl) acrylamide] | A (GI50 < 50 nM)
20 | C=CC(=O)Nc1cc(Nc2cc(N3OCC[C@@H]3c3cc(F)ccc3F)ncn2)c(OC)cc1N1CCC(N2CC3CCC(C2)N3C2CC2)CC1 [Example 134, N-(2-(4-(8-cyclopropyl-3,8-diazabicyclo[3.2.1]octan-3-yl)piperidine-1-yl)-5-((6-((R)-3-(2,5-difluorophenyl)isoxazolidine-2-yl)pyrimidine-4-yl)amino)-4-methoxyphenyl) acrylamide] | A (GI50 < 50 nM)
21 | C=CC(=O)Nc1cc(Nc2cc(N3OCC[C@@H]3c3cc(F)cc(F)c3)ncn2)c(O[C@H](C)C(F)(F)F)cc1N1CCC(N2CCN(C3CC3)CC2)CC1 [Example 119, N-(2-(4-(4-cyclopropylpiperazine-1-yl)piperidine-1-yl)-5-((6-((R)-3-(3,5-difluorophenyl)isoxazolidine-2-yl)pyrimidine-4-yl)amino)-4-(((R)-1,1,1-trifluoropropane-yl)oxy)phenyl)acrylamide] | A (GI50 < 50 nM)
22 | C=CC(=O)Nc1cc(Nc2cc(N3OCC[C@@H]3c3ccc(F)c(Cl)c3)ncn2)c(OC)cc1N1CCC(N2CCC(N(C)C)CC2)CC1 [compound 768, N-(5-((6-((R)-3-(3-chloro-4-fluorophenyl)isoxazolidine-2-yl)pyrimidine-4-yl)amino)-2-(4-(dimethylamino)-[1,4'-bipiperidine]-1'-yl)-4-methoxyphenyl) acrylamide] | A (GI50 < 50 nM)
